Our source for the IC50 values is patent US20240415819A1, “MACROCYCLIC COMPOUNDS AS PROTEASOME SUBUNIT BETA TYPE-5 INHIBITORS” (Lead Discovery Center GmbH, priority 2021, published 2024).

Structures are written as SMILES.

Test [1] concerns the target T1, β5 subunit of the human constitutive proteasome (CPS) (Homo sapiens, UniProt P28074).
T1 construct: purchased Boston Biochem E-360
The test is described as follows: β5 inhibition assay, human constitutive proteasome (Suc-LLVY-AMC). The test is classed as biochemical. To be noted: IC50 class, Suc-LLVY-AMC substrate. As for the experimental part:
The enzymatic activity of the β5 subunit of the human constitutive proteasome (CPS) is analyzed. In another assay, which differs from the assay of the human constitutive proteasome only in using the human immunoproteasome (IPS) the enzymatic activity of the β5 subunit of the human immunoproteasome (IPS) is analyzed. […] Inhibition is indicated as IC50 [nM] (“-”=not measured).

The test system of test [2] is Hs 746T (human gastric carcinoma cell line). The test is described as follows: 48 hr CTG viability assay, Hs 746T. It is filed as cell-based. To be noted: Hs746T, 48 hr CTG, read-out: Hs 746T IC50. Put shortly:
(§1)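 Growth inhibition by compound over 48 h; IC50 (nM) derived from duplicate CellTiter-Glo luminescence readings across 0.0015–10 uM.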

In test [3] the test system is RPMI 8226 (B lymphocyte cell line, multiple myeloma). The test is described as follows: 48 hr CTG viability assay, RPMI 8226. The test is classed as cell-based. To be noted: Homo sapiens, RPMI-8226; 48 hr CTG; read-out: RPMI-8226 IC50. Put shortly:
as §1

The target of test [4] is T2, β5 subunit of the human immunoproteasome (IPS) (Homo sapiens, UniProt P28062).
T2 construct: purchased Boston Biochem E-370
The test is described as follows: β5 inhibition assay, human immunoproteasome (Suc-LLVY-AMC). It is filed as biochemical. To be noted: IC50 class, Suc-LLVY-AMC substrate. Put shortly: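 Human immunoproteasome (1 nM final) was preincubated 10 min at RT with compound in 100 mM HEPES pH 7.5, 50 mM NaCl, 0.02% SDS, 1 mM DTT. Suc-LLVY-AMC (22.6 μM final) was then added for 4 h at RT in the dark. After stopping with 1 μM bortezomib, AMC fluorescence was read (ex 355/em 460 nm).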

Test [5] relates to MM1 S (B lymphoblast cell line). The test is described as follows: 48 hr CTG viability assay, MM1S. The test is classed as cell-based. To be noted: Homo sapiens, 48 hr CTG, read-out: MM1S IC50. Put shortly:
as §1

Test [6] has as its system A549 (human lung carcinoma cell line). The test is described as follows: Glo assay of A549 cells (Table 3; ProteasomeGlo plating scheme). The test is classed as cell-based. To be noted: Homo sapiens; A549 cells; read-out: PGLo A549. The method, boiled down: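 After acoustic compound transfer, plates incubate 105 min (37° C., 5% CO2). Proteasome-Glo reagent containing Suc-LLVY-Glo substrate is added, plates are shaken, then luminescence is measured after 10-15 min to derive IC50 [nM]. Staurosporine and DMSO serve as controls.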

For `Cc1ccc2cc1CNC(=O)[C@H](CCc1ccccc1)NC(=O)[C@@H](NC(=O)CCN1CC3(COC3)C1)CC(=O)N1CCCC(CCO2)C1` (stereo partly drawn) [Compound 660, N-((9S,12S)-5^4-methyl-8,11,14-trioxo-9-phenethyl-4-oxa-7,10-diaza-1(3,1)-piperidina-5(1,3)-benzenacyclotetradecaphane-12-yl)-3-(2-oxa-6-azaspiro[3.3]heptan-6-yl)propanamide], the IC50 in test [1], in test [2], in test [3], in test [4], in test [5] and in test [6] was below 0.1 µM throughout.
`Cc1ccc2cc1CNC(=O)[C@H](CCc1ccccc1)NC(=O)[C@@H](NC(=O)N1CCc3cnccc31)CC(=O)N1CCCC(CCO2)C1` (stereo partly drawn) [Compound 703, N-((9S,12S)-5^4-methyl-8,11,14-trioxo-9-phenethyl-4-oxa-7,10-diaza-1(3,1)-piperidina-5(1,3)-benzenacyclotetradecaphane-12-yl)-2,3-dihydro-1H-pyrrolo[3,2-c]pyridine-1-carboxamide]: the IC50 in test [1], in test [2], in test [3], in test [4], in test [5] and in test [6] was below 0.1 µM throughout.
With `CCN1CCC(F)(C(=O)N[C@H]2CC(=O)N3CCCC(CCOc4ccc(C)c(c4)CNC(=O)[C@H](CCc4ccccc4)NC2=O)C3)CC1` (stereo partly drawn) [Compound 592, 1-ethyl-4-fluoro-N-((9S,12S)-5^4-methyl-8,11,14-trioxo-9-phenethyl-4-oxa-7,10-diaza-1(3,1)-piperidina-5(1,3)-benzenacyclotetradecaphane-12-yl)piperidine-4-carboxamide], the IC50 in test [1], in test [2], in test [3], in test [4], in test [5] and in test [6] was below 0.1 µM in each case.
Turning to `Cc1ccc2cc1CNC(=O)[C@H](CCc1ccccc1)NC(=O)[C@@H](NC(=O)C13CC(F)(C1)C3)CC(=O)N1CCCC(CCO2)C1` (stereo partly drawn) [Compound 633, 3-fluoro-N-((9S,12S)-5^4-methyl-8,11,14-trioxo-9-phenethyl-4-oxa-7,10-diaza-1(3,1)-piperidina-5(1,3)-benzenacyclotetradecaphane-12-yl)bicyclo[1.1.1]pentane-1-carboxamide], the IC50 in test [1], in test [2], in test [3], in test [4], in test [5] and in test [6] was below 0.1 µM in each case.
Regarding `Cc1ccc2cc1CNC(=O)[C@H](CCc1ccccc1)NC(=O)[C@@H](NC(=O)CCN1CCC3(CCOC3)CC1)CC(=O)N1CCCC(CCO2)C1` (stereo partly drawn) [Compound 621, N-((9S,12S)-5^4-methyl-8,11,14-trioxo-9-phenethyl-4-oxa-7,10-diaza-1(3,1)-piperidina-5(1,3)-benzenacyclotetradecaphane-12-yl)-3-(2-oxa-8-azaspiro[4.5]decan-8-yl)propanamide], the IC50 in test [1], in test [2], in test [3], in test [4], in test [5] and in test [6] was below 0.1 µM each time.
Turning to `Cc1ccc2cc1CNC(=O)[C@H](CCc1ccccc1)NC(=O)[C@@H](NC(=O)N1CCNCC1)CC(=O)N1CCCC(CCO2)C1` (stereo partly drawn) [Compound 716, N-((9S,12S)-5^4-methyl-8,11,14-trioxo-9-phenethyl-4-oxa-7,10-diaza-1(3,1)-piperidina-5(1,3)-benzenacyclotetradecaphane-12-yl)piperazine-1-carboxamide], the IC50 in test [1] is below 0.1 µM; in test [2], 0.1 to 0.5 µM; in test [3], below 0.1 µM; in test [4], below 0.1 µM; in test [5], below 0.1 µM; in test [6], below 0.1 µM.
With `Cc1ccc2cc1CNC(=O)[C@H](CCc1ccccc1)NC(=O)[C@@H](NC(=O)CCOCC1CCC1)CC(=O)N1CCCC(CCO2)C1` (stereo partly drawn) [Compound 628, 3-(cyclobutylmethoxy)-N-((9S,12S)-5^4-methyl-8,11,14-trioxo-9-phenethyl-4-oxa-7,10-diaza-1(3,1)-piperidina-5(1,3)-benzenacyclotetradecaphane-12-yl)propanamide], the IC50 in test [1], in test [2], in test [3], in test [4], in test [5] and in test [6] was below 0.1 µM throughout.
Turning to `Cc1ccc2cc1CNC(=O)[C@H](CCc1ccccc1)NC(=O)[C@@H](NC(=O)N1CCc3cc(O)ccc31)CC(=O)N1CCCC(CCO2)C1` (stereo partly drawn) [Compound 705, 5-hydroxy-N-((9S,12S)-5^4-methyl-8,11,14-trioxo-9-phenethyl-4-oxa-7,10-diaza-1(3,1)-piperidina-5(1,3)-benzenacyclotetradecaphane-12-yl)indoline-1-carboxamide], the IC50 in test [1], in test [2], in test [3], in test [4], in test [5] and in test [6] was below 0.1 µM throughout.
Regarding `Cc1ccc2cc1CNC(=O)[C@H](CCc1ccccc1)NC(=O)[C@@H](NC(=O)CCNC1CC3(COC3)C1)CC(=O)N1CCCC(CCO2)C1` (stereo partly drawn) [Compound 720, 3-((2-oxaspiro[3.3]heptan-6-yl)amino)-N-((9S,12S)-5^4-methyl-8,11,14-trioxo-9-phenethyl-4-oxa-7,10-diaza-1(3,1)-piperidina-5(1,3)-benzenacyclotetradecaphane-12-yl)propanamide], the IC50 was below 0.1 µM in test [1]; 0.5 to 1 µM in test [2]; 0.1 to 0.5 µM in test [3]; below 0.1 µM in test [4]; 0.1 to 0.5 µM in test [5]; below 0.1 µM in test [6].
For the compound `Cc1ccc2cc1CNC(=O)[C@H](CCc1ccncc1)NC(=O)[C@@H](NC(=O)Cc1ccccc1F)CC(=O)N1CCCC(CCO2)C1` (stereo partly drawn) [Compound 737, 2-(2-fluorophenyl)-N-((9S,12S)-5^4-methyl-8,11,14-trioxo-9-(2-(pyridin-4-yl)ethyl)-4-oxa-7,10-diaza-1(3,1)-piperidina-5(1,3)-benzenacyclotetradecaphane-12-yl)acetamide], the IC50 in test [1], in test [2], in test [3], in test [4], in test [5] and in test [6] was below 0.1 µM each time.
For `Cc1ccc2cc1CNC(=O)[C@H](CCc1ccccc1)NC(=O)[C@@H](NC(=O)CCNC(=O)C1CC3(CCC3)C1)CC(=O)N1CCCC(CCO2)C1` (stereo partly drawn) [Compound 616, N-(3-(((9S,12S)-5^4-methyl-8,11,14-trioxo-9-phenethyl-4-oxa-7,10-diaza-1(3,1)-piperidina-5(1,3)-benzenacyclotetradecaphane-12-yl)amino)-3-oxopropyl)spiro[3.3]heptane-2-carboxamide], the IC50 in test [1], in test [2], in test [3], in test [4], in test [5] and in test [6] was below 0.1 µM throughout.
Consider `Cc1ccc2cc1CNC(=O)[C@H](CCc1ccccc1)NC(=O)[C@@H](NC(=O)C1(C)CNC1)CC(=O)N1CCCC(CCO2)C1` (stereo partly drawn) [Compound 715, 3-methyl-N-((9S,12S)-5^4-methyl-8,11,14-trioxo-9-phenethyl-4-oxa-7,10-diaza-1(3,1)-piperidina-5(1,3)-benzenacyclotetradecaphane-12-yl)azetidine-3-carboxamide], for which the IC50 in test [1] is below 0.1 µM; in test [2] it was 0.1 to 0.5 µM; in test [3], below 0.1 µM; in test [4], below 0.1 µM; in test [5] it was below 0.1 µM; in test [6] it was below 0.1 µM.
Take `Cc1ccc2cc1CNC(=O)[C@H](CCc1ccccc1)NC(=O)[C@@H](NC(=O)Cc1ccc(N)cc1C)CCCC(=O)NCCCCO2` [Compound 718, 2-(4-amino-2-methylphenyl)-N-((12S,15S)-1^4-methyl-8,13,16-trioxo-15-phenethyl-2-oxa-7,14,17-triaza-1(1,3)-benzenacyclooctadecaphane-12-yl)acetamide]: the IC50 in test [1] is below 0.1 µM; in test [2], 0.1 to 0.5 µM; in test [3], 0.1 to 0.5 µM; in test [4] it was below 0.1 µM; in test [5], below 0.1 µM; in test [6], below 0.1 µM.
